Laboratory results from patent US9095565B2, “Methods for treating blood disorders” (Phoenicia Biosciences, Inc., priority 2006, dated 2015).

Columns and labels:
[1] = test system: γ globin promoter; assay: β/γ-globin promoter driven reporter gene assay; format: cell-based; settings: Table 2
[2] = test system: γ-globin mRNA; assay: γ-globin mRNA by RT-PCR in erythroid colonies cultured from cord blood; format: cell-based, human; settings: for Concentration required: increase in fetal globin mRNA, erythroid colonies from cord blood; for No. of Positive responses: positive cultures/cultures tested
Protocol: γ-globin mRNA was analyzed in control and treated erythroid colonies cultured from cord blood, by RT-PCR.

[3] = test system: γ-globin gene reporter; assay: Related study: relative luciferase reporter gene induction; format: cell-based
Protocol: (§1) In a related study, the relative luciferase reporter gene induction, γ-globin gene induction, and F cell production was tested for several of the candidate compounds. The relative in vitro γ-globin gene reporter stimulation for the tested compounds was as follows: compound P>M>W=R=Y. The relative in vitro γ-globin gene induction for the tested compounds was as follows: P>R=M>Y>W>. The relative in vitro F-cell production was as follows: W>Y>R>M>P. The relative potency for F-cell production was as follows: R>M>Y>P>W.

[4] = test system: γ-globin gene; assay: Related study: relative in vitro γ-globin gene induction; format: cell-based
Protocol: as §1

[5] = test system: F-cell; assay: Related study: in vitro F cell production; format: cell-based
Protocol: as §1

[6] = test system: cells expressing fetal globin (F-cells); assay: Experiment 1: proportion of F-cells in hematopoietic colonies by FACScan; format: cell-based, human; settings: same low concentrations as for fetal globin mRNA induction
Protocol: (§2) Erythroid burst-forming units (BFU-E) (erythroid progenitors) and colony-forming units granulocyte-macrophage (CFU-GM) (myeloid colonies) were cultured in semi-solid or in two-phase suspension media, with or without hematopoietic growth factors at high levels (e.g., erythropoietin at 3 U/ml) or reduced levels (BFU-E cell proliferation was evaluated by enumeration in colonies developing in the presence of reduced amounts of erythropoietin (0.5 U/ml) rather than 3 U (or 3000 mU)/ml, which is standard for these experimental systems), from cord blood or the peripheral blood of several types of humans. Experiments were carried out on samples derived from 1) β-thalassemia patients who expressed variable levels of fetal globin at baseline (and in untreated control cultures) and represent a variety of potential individual responses, 2) from normal umbilical cord blood samples, which express 40-50% fetal globin at baseline (and in untreated control cultures), 3) from CD34+ cells isolated from normal adult peripheral blood, which expressed low levels of fetal globin in untreated control cultures and at baseline; and 4) from peripheral blood of patients with sickle cell disease who were receiving treatment with hydroxyurea. These biological samples provide a range of potential difficulty in stimulating fetal globin expression in human patients.
Hematopoietic colonies were enumerated with or without (+/−) the test compounds, and compared to colonies which developed in the presence of hematopoietic growth factors alone from the same subject (untreated control colonies), and proportions of cells expressing fetal globin (F-cells) were analyzed by FACScan analysis.

[7] = test system: Erythroid colonies (BFU-E); assay: Experiment 2: erythroid colonies (BFU-E) cultured from patients with beta thalassemia; format: cell-based, human; settings: optimal panel of growth factors
Protocol: as §2
Erythroid colonies were cultured from patients with beta thalassemia, either without any test compounds (Control), only an optimal panel of hematopoietic growth factors, or with one of the test compounds M, P, T, 2-methyl-1-benzofuran-4-carboxylic acid, V, W, X, Y, AK, AC, or AI. […] Colony numbers were increased above the control cultures (% BFU-E/Control) by anywhere from 25% to 230%. Each of the listed test compounds was tested in at least 5 different patients' blood and the differences were statistically significant.

[8] = test system: BFU-E; assay: BFU-E cultured from cord blood; format: cell-based, human
Protocol: as §2
In a related study, BFU-E cultured from cord blood, was tested with or without compound M, P, R, T, W, Y, Z, AI, F, or 3-(5-chlorothien-3-yl)acrylic acid.

[9] = test system: Erythroid cells cultured from adult blood; assay: Experiment 4: erythroid cells cultured from adult blood CD34+ cells (cell counts, qRT-PCR, HPLC of hemoglobins); format: cell-based, human
Protocol: Erythroid cells cultured from adult blood are low-HbF expressing and are the most difficult to alter with regard to globin expression. This experiment analyzed erythroid cells cultured from adult blood in the presence or absence of representative test compounds.
Erythroid cells were generated by culturing purified CD34+ cells in Flt-3 ligand, stem cell factor (SCF) and IL-3 for seven days followed by growth in EPO for 14 days. For treatment, cells were cultured as above in a T75 flask then split into multiple flasks on day 8 and treatment with the test compounds was begun. Compound P or other test compounds were diluted from stock solutions with the microliter volumes of stock added to each culture flask for final working concentrations. Cells were enumerated every two days by hemacytometer count. RNA was harvested from 10^6 cells every two days using RNeasy Plus Mini Kit (Qiagen) and qRT-PCR performed using IQ SybrGreen Supermix on an Opticon Monitor instrument (MJ Research). […] Separation of hemoglobins was performed by cation exchange HPLC using a 35×4.6 mm; […] PolyCAT A column (Nest Group) as described previously by Cheryl Rognerud and Ching-Nan Ou, and outlined by the column manufacturer.
QPCR primers were designed using known sequences for α-globin, β-globin, γ-globin, β-actin and B3PD. Primers were designed to span at least one […].

[10] = test system: fetal globin mRNA; assay: Fetal globin induction in phlebotomized anemic baboons; format: in vivo, baboon; settings: for fetal globin mRNA (% of non-alpha globin): baseline 26%
Protocol: Juvenile baboons were catheterized with venous and arterial catheters, and were phlebotomized a set amount of blood daily to maintain anemia with a hemoglobin level of 7.0-7.5 g/dl, from a baseline normal hemoglobin level of (12-13 g/dl). Normal saline was infused to replace the amount of blood withdrawn. This degree of phlebotomy exchanges the blood volume every 10-20 days.
Fetal globin mRNA was analyzed at baseline anemia before and following administration of test compounds. Globin chain protein synthesis confirmed the mRNA findings.
Following establishment of the stable level of anemia, a test compound was administered once/day, either intravenously or orally, and blood was withdrawn through the arterial catheter for analysis of globin mRNA or for analysis of the test compound in the plasma by HPLC-MS. Pharmacokinetic profiles were established from the plasma levels and oral bioavailability (comparing area under the curve between IV and oral plasma levels) was determined for the test compounds.
In anemic Baboon 5002, baseline fetal globin mRNA, assayed by RNAse protection, was 26% of non-alpha globin. With treatment with compound Y at 5 mg/kg/dose, fetal globin mRNA increased to 48% of non-alpha globin, an 85% increase over the baseline level. Treatment with compound AK at 50 mg/kg induced a 51% fetal globin mRNA increase, a 96% increase over the baseline level. […] The human equivalent dose is 20% of these doses, or 1 mg/kg, 10 mg/kg, or 8 mg/kg respectively. Thus, these 3 compounds are highly suitable for pharmaceutical compositions at doses that human patients can readily tolerate.

[11] = test system: fetal globin gene promoter; assay: Example 8: factor occupancy of globin gene promoters in primary erythroid cells; format: cell-based
From the text: This is a selective effect on the fetal (gamma globin) gene promoter, without generalized widespread epistatic effects or any effects on the beta globin promoter, as other agents tend to cause. The transcription factor EKLF and the remodeling complex Brg1 and Pol II became bound to the promoter in association with gene activation. In contrast, there were no effects on the beta globin gene promoter. These compounds therefore produce highly specific activating effects solely on the globin gene promoter which would be beneficial to induce for therapy of the beta globin gene disorders, and provide a targeted molecular activity.

[12] = test system: myeloid colonies; assay: Experiment 3: myeloid colonies in cord blood cultured without added growth factors; format: cell-based, human; settings: no added growth factors
Protocol: as §2
Control colonies were established in cultures with no added growth factors to support myelopoiesis, in Iscove's Modified Dulbecco's Media (IMDM) methylcellulose media with charcoal-absorbed fetal bovine serum, beta mercaptoethanol, BSA.

[13] = Pharmacokinetic profiles in anemic juvenile baboons (plasma levels by HPLC-MS); format: in vivo; settings: 10 mg/kg oral, baboon
Protocol: Juvenile baboons were catheterized with venous and arterial catheters, and were phlebotomized a set amount of blood daily to maintain anemia with a hemoglobin level of 7.0-7.5 g/dl, from a baseline normal hemoglobin level of (12-13 g/dl). Normal saline was infused to replace the amount of blood withdrawn. This degree of phlebotomy exchanges the blood volume every 10-20 days. Following establishment of the stable level of anemia, a test compound was administered once/day, either intravenously or orally, and blood was withdrawn through the arterial catheter for analysis of globin mRNA or for analysis of the test compound in the plasma by HPLC-MS. Pharmacokinetic profiles were established from the plasma levels and oral bioavailability (comparing area under the curve between IV and oral plasma levels) was determined for the test compounds.

[14] = test system: Erythroid colonies; assay: Experiment 6: erythroid colony growth from sickle cell patients receiving hydroxyurea; format: cell-based, human
Protocol: Erythroid colonies from the peripheral blood of 4 patients with sickle cell disease who were receiving treatment with Hydroxyurea (HU), a chemotherapeutic agent which suppresses marrow growth and reduces red blood cell production, were cultured alone or with added test compounds M, P, 2-methyl-1-benzofuran-4-carboxylic acid, V, W, Y (racemic mixture) or AI. L-arginine was added as a neutral control, and had no effect on numbers of erythroid colonies.
2-methyl-1-benzofuran-4-carboxylic acid and compound V require additional samples for statistical evaluation, but had positive effects in 3/3 different patients' cultures. These findings indicate that the test compounds stimulate erythroid cell production particularly in conditions of anemia and bone marrow suppression.

Row | Compound | % γ globin promoter induction (above untreated control) [1] | Concentration required [2] [µM] | No. of Positive responses [2] | relative in vitro γ-globin gene reporter stimulation (rank order) [3] | relative in vitro γ-globin gene induction (rank order) [4] | relative in vitro F-cell production (rank order) [5] | relative potency for F-cell production (rank order) [5] | proportion of F-cells above the percentage in untreated controls [6] | number of erythroid colonies compared to matched control cultures [7] | numbers of BFU-E colonies compared to controls [8] | production of myeloid colonies compared to untreated control [12] | effect on numbers of erythroid colonies compared to control [14] | also measured
1 | O=C(O)c1cccc(-c2cc3ccccc3oc2=O)c1 [Compound P] | *** (‘***’ indicates an over 200% increase of γ globin promoter induction over untreated controls) | 20 | 6/6 | P>M>W=R=Y | P>R=M>Y>W | W>Y>R>M>P | R>M>Y>P>W | significant increases | increased the number of colonies | increased numbers of colonies |  |  | Cell counts vs cells cultured with erythropoietin alone ([9]; 20 microM): increased; increase in expression of fetal globin (Hemoglobin F protein) vs untreated control ([9]; 100 micromolar, one cycle of erythroid differentiation): 19 fold; production/expression of alpha globin ([9]; different doses): no effect; production of beta globin ([9]; same doses as increases in fetal globin mRNA): reciprocal decrease; induction of fetal globin (% of globin expression) ([10]; phlebotomized anemic baboon with no baseline fetal globin): 7%; beta globin expression ([10]; same baboon, baseline 100% beta globin): concommitant reduction; EKLF and Brg1 ATPase proteins at the gamma-globin gene promoter [11]: induced recruitment; effects on the beta globin gene promoter [11]: no effects; repressor complex of HDAC3, NCoR at the fetal globin gene promoter [11]: displacement of a repressor complex of HDAC3, NCoR
2 | CCC(Nc1ncnc2ccccc12)C(=O)O (stereo not shown) [Compound M] | ** (‘**’ indicates a 100%-200% increase) | 5 | 4/6 | P>M>W=R=Y | P>R=M>Y>W | W>Y>R>M>P | R>M>Y>P>W | significant increases | increased the number of colonies | increased numbers of colonies | stimulated production of myeloid colonies |  | increase over the baseline level of fetal globin mRNA ([10]; Baboon 5002, 40 mg/kg): 257%; fetal globin mRNA (% of non-alpha globin) ([10]; Baboon 5002, 40 mg/kg): 67%
3 | COc1cc(OC)nc(SC(C(=O)O)C(C)C)n1 (racemic) [Compound Y] | ** (‘**’ indicates a 100%-200% increase) | 5 | 1/3 | P>M>W=R=Y | P>R=M>Y>W | W>Y>R>M>P | R>M>Y>P>W | significant increases | increased the number of colonies | increased numbers of colonies | stimulated production of myeloid colonies |  | initial burst level [13]: does not produce an undesirable high initial burst level; persistence in plasma [13]: greater than 24 hours; increase over the baseline level of fetal globin mRNA ([10]; Baboon 5002, 5 mg/kg/dose): 85%; fetal globin mRNA (% of non-alpha globin) ([10]; Baboon 5002, 5 mg/kg/dose, RNAse protection): 48%
4 | N=C(N)NCCC[C@H](N)C(=O)O [L-arginine] |  |  |  |  |  |  |  |  |  |  |  | no effect | 
5 | NC(=O)NO [Hydroxyurea] |  |  |  |  |  |  |  |  |  |  |  | decreased numbers of erythroid colonies | 
